Test results published in patent US20250360120A1, “METHODS OF TREATMENT OF DRAVET SYNDROME” (Noema Pharma AG, priority 2023, published 2025).

Test system: Scn1a+/− mice
Experiment: Seizure frequency, seizure freedom and time to first seizure (frontal cortex EEG) in Scn1a+/− mice
Type: in vivo
Conditions: for Odds Ratio of seizure freedom (vs Untreated) / Probability of seizure freedom: GLM binomial; for median time to first seizure: Kaplan-Meier, Untreated group 7 days
Experimental: Heterozygous deletion of Sca1a in mice (Scn1a+/−) recapitulates several core phenotypes of clinical Dravet syndrome, including temperature-dependent and spontaneous seizures, SUDEP, and behavioral abnormalities. […] As such, Scn1a+/−mice are a favourable model to enable translation of novel ASMs with varied mechanism of action to the clinic.
The experiment was conducted to evaluate the effect of Compound I, CTEP and RO6807794 on seizure frequency, seizure freedom and survival in Scn1a+/− mice.
Frontal cortex recordings were selected as representative of the seizure phenomenology on mice experiencing generalized seizures. EEG headmounts were implanted between P20-22 and recordings were initiated for continuous monitoring for a period of approximately 14-days for the NAM group and PAM group. Individual frontal cortex seizure measurements over time were visually explored and summaries across the time course were calculated. • 1. Seizure frequency
Seizure frequency was measured by count of the number of seizures observed each day. The frequency was analyzed using a Chi-square test (all treatments) and Fisher's Exact test (pairwise treatment comparisons). • 2. Seizure freedom
Seizure freedom was measured with a binary (0 or 1) endpoint, where it was recorded as a […] was recorded across the whole study. Seizure freedom was summarized across all animals into a contingency table and analyzed using a generalized linear model (GLM) with a binomial distribution for the errors and a logit link function. The results were presented as probabilities and odds ratios between groups and 95% confidence intervals. The odd ratio described how much more likely it is for an animal to have no seizures (Seizure freedom=1) in a treated group compared to the untreated group. Analyses were performed using GraphPad Prism 9 (contingency table) and SAS 9.4 (binomial model). • 3. Time to first seizure:
Time to first seizure refers the time recorded as the day on which the first seizure occurred (an observed, uncensored observation), or the final day of recording for that animal if on seizure was observed (a censored observation). Time to first seizure was visualized using a Kaplan-Meier plot and analyzed using a Log-rank (Mantel-Cox) test. Analyses were performed using GraphPad Prism 9. • 4. Total seizure burden
Total seizure burden is sum of the seizure frequency across all study days. • 5. Seizure per day
Seizure per day is measured by the total seizure count divided by the number of study days, wherein a seizure count measurement was adjusted by the number of days the animal was in the study.
Time to first seizure and Seizure per day were explored visually and analyzed using analysis of variance (ANOVA). Results were presented as geometric means, ratios of geometric means, confidence intervals and p-values. An additional non-parametric analysis, Kruskal-Wallis, was explored along with Wilcoxon pairwise comparisons to the Untreated group. The data was also analyzed using a generalized linear model (GLM) with a Poisson distribution for the errors and a log link function. The linear predictor described a model suitable for exploring a fixed effect of treatment group.

[1] = 0.3 mg/kg PO once daily for 28-days from P10
[2] = 1 mg/kg PO once daily for 28-days from P10
[3] = ANOVA on log10 adjusted scale, 0.3 mg/kg PO once daily for 28-days from P10
[4] = ANOVA on log10 adjusted scale, 1 mg/kg PO once daily for 28-days from P10
[5] = Generalized Linear Model on discrete (count) data, 0.3 mg/kg PO once daily for 28-days from P10
[6] = Generalized Linear Model on discrete (count) data, 1 mg/kg PO once daily for 28-days from P10
[7] = Kruskal-Wallis with Wilcoxon pairwise tests, 1 mg/kg PO once daily for 28-days from P10
[8] = exploratory ANOVA on log10 scale, 0.3 mg/kg PO once daily for 28-days from P10
[9] = exploratory ANOVA on log10 scale, 1 mg/kg PO once daily for 28-days from P10
[10] = ANOVA on log10 adjusted scale, 0.3 mg/kg IP once daily for 5-days from P21
[11] = Generalized Linear Model on discrete (count) data, 0.3 mg/kg IP once daily for 5-days from P21
[12] = 0.3 mg/kg PO every other day for 28-days
[13] = ANOVA on log10 adjusted scale, 0.3 mg/kg PO every other day for 28-days
[14] = Generalized Linear Model on discrete (count) data, 0.3 mg/kg PO every other day for 28-days
[15] = Kruskal-Wallis with Wilcoxon pairwise tests, 0.3 mg/kg PO every other day for 28-days
[16] = exploratory ANOVA on log10 scale, 0.3 mg/kg PO every other day for 28-days

## Cc1nc(C#Cc2ccnc(Cl)c2)c(C)n1-c1ccc(F)cc1 [Compound I, 2-chloro-4-[1-(4-fluorophenyl)-2,5-dimethyl-1H-imidazol-4-ylethynyl]pyridine]
[1]
  Frequency of animals with At least 1 Seizure: 10
  Frequency of animals with No Seizures (seizure freedom): 1
  Percent of animals with At least 1 Seizure: 90.9%
  Percent of animals with No Seizures (seizure freedom): 9.1%
  Odds Ratio of seizure freedom (vs Untreated): 0.3
  Probability of seizure freedom: 0.09
  median time to first seizure: 2 days
[2]
  Frequency of animals with At least 1 Seizure: 3
  Frequency of animals with No Seizures (seizure freedom): 10
  Percent of animals with At least 1 Seizure: 23.1%
  Percent of animals with No Seizures (seizure freedom): 76.9%
  animals with Seizure Freedom over time (Kaplan-Meier, in words): more animals with Seizure Freedom for a longer duration
  Odds Ratio of seizure freedom (vs Untreated): 10
  Probability of seizure freedom: 0.77
1 mg/kg PO once daily for 28-days from P10, 25% in the Untreated group
  chance of seizure freedom: 77%
[3]
  Seizure per day, % Change compared to untreated group: 183.96%
  Seizure per day, Geometric Mean: 0.349
  Seizure per day, Ratio of Means compared to untreated group: 2.84
[4]
  Seizure per day, % Change compared to untreated group: −84.81%
  Seizure per day, Geometric Mean: 0.019
  Seizure per day, Ratio of Means compared to untreated group: 0.15
  reduction of average seizure per day compared to the Untreated group: 79%
GLM on discrete (count) data, 1 mg/kg PO once daily for 28-days from P10
  reduction of total seizure burden compared to the Untreated group: 44%
[5]
  Seizure per day, % Change vs Untreated: 85.38%
  Seizure per day, Geometric Mean: 0.910
  Seizure per day, Ratio of Means vs Untreated: 1.85
  Total Seizure Burden, % Change vs Untreated: 87.21%
  Total Seizure Burden, Geometric Mean: 12.64
  Total Seizure Burden, Ratio of Means vs Untreated: 1.87
[6]
  Seizure per day, % Change vs Untreated: −46.32%
  Seizure per day, Geometric Mean: 0.263
  Seizure per day, Ratio of Means vs Untreated: 0.54
  Total Seizure Burden, % Change vs Untreated: −44.16%
  Total Seizure Burden, Geometric Mean: 3.77
  Total Seizure Burden, Ratio of Means vs Untreated: 0.56
[7]
  seizure per day rates compared to the Untreated group (in words): decreased seizure per day rates
  total seizure burden compared to the Untreated group (in words): lower total seizure burden
[8]
  Total Seizure Burden, % Change compared to Untreated group: 136.21%
  Total Seizure Burden, Geometric Mean: 4.16
  Total Seizure Burden, Ratio of Means compared to Untreated group: 2.36
[9]
  Total Seizure Burden, % Change compared to Untreated group: −84.25%
  Total Seizure Burden, Geometric Mean: 0.28
  Total Seizure Burden, Ratio of Means compared to Untreated group: 0.16
  reduction of total seizure burden compared to the Untreated group: 84%

## CN(C(=O)c1ncc(C#Cc2cccc(F)c2)cn1)C(C)(C)C [RO6807794, reference compound]
[10]
  Seizure per day, % Change compared to untreated group: 751.1%
  Seizure per day, Geometric Mean: 1.046
  Seizure per day, Ratio of Means compared to untreated group: 8.51
GLM on discrete (count) data, 0.3 mg/kg IP once daily for 5-days from P21
  seizure per day rates compared to the Untreated group (in words): statistically significantly increased seizure per day rates
[11]
  Seizure per day, % Change vs Untreated: 407.47%
  Seizure per day, Geometric Mean: 2.490
  Seizure per day, Ratio of Means vs Untreated: 5.07
0.3 mg/kg IP once daily for 5-days from P21
  median time to first seizure: 3 days
Kruskal-Wallis with Wilcoxon pairwise tests, 0.3 mg/kg IP once daily for 5-days from P21
  seizure per day rates compared to the Untreated group (in words): increased seizure per day rates

## Cc1nc(C#Cc2ccnc(Cl)c2)c(C)n1-c1ccc(OC(F)(F)F)cc1 [CTEP, reference compound]
[12]
  Frequency of animals with At least 1 Seizure: 4
  Frequency of animals with No Seizures (seizure freedom): 11
  Percent of animals with At least 1 Seizure: 26.7%
  Percent of animals with No Seizures (seizure freedom): 73.3%
  animals with Seizure Freedom over time (Kaplan-Meier, in words): more animals with Seizure Freedom for a longer duration
  Odds Ratio of seizure freedom (vs Untreated): 8.25
  Probability of seizure freedom: 0.73
[13]
  Seizure per day, % Change compared to untreated group: −79.05%
  Seizure per day, Geometric Mean: 0.026
  Seizure per day, Ratio of Means compared to untreated group: 0.21
  reduction of average seizure per day compared to the Untreated group: 85%
GLM on discrete (count) data, 0.3 mg/kg PO every other day for 28-days
  reduction of total seizure burden compared to the Untreated group: 62%
[14]
  Seizure per day, % Change vs Untreated: −23.56%
  Seizure per day, Geometric Mean: 0.375
  Seizure per day, Ratio of Means vs Untreated: 0.76
  Total Seizure Burden, % Change vs Untreated: −62.47%
  Total Seizure Burden, Geometric Mean: 2.53
  Total Seizure Burden, Ratio of Means vs Untreated: 0.38
[15]
  seizure per day rates compared to the Untreated group (in words): decreased seizure per day rates
  total seizure burden compared to the Untreated group (in words): lower total seizure burden
[16]
  Total Seizure Burden, % Change compared to Untreated group: −82.08%
  Total Seizure Burden, Geometric Mean: 0.32
  Total Seizure Burden, Ratio of Means compared to Untreated group: 0.18
  reduction of total seizure burden compared to the Untreated group: 82%
